This is an account of results in patent publication US20230151034A1 (COCRYSTAL PHARMA, INC., priority 2020, published 2023).

The experiment addresses SARS2 protease (Severe acute respiratory syndrome coronavirus 2, UniProt P0DTD1). The experiment is described as follows: SARS-CoV-2 protease inhibition assay (SARS2 FRET protease assay). In kind it is biochemical. As for the experimental part: Viral protease assays: The antiviral activities of inhibitors were determined by FRET (Fluorescence Resonance Energy Transfer) assay. Purified viral protease was incubated with the protease substrate peptide (Edans-DFHLQ/GP-Dabcyl) and inhibitor, and IC50 values were subsequently determined by the fluorescence signals.
The SARS2 FRET protease assay was performed in 20 mM HEPES-Na pH 7, 120 mM NaCl, 0.4 mM EDTA, 0.01% Triton, 5% glycerol, and 4 mM DTT. A self-quenching peptide substrate 5-FAM-TSA VLQ SGF RKK (5TAMRA)-NH2 was custom synthesized by Anaspec. Compounds were diluted in 3-fold serial dilutions to final concentrations of 20 μM to 1.0 nM. SARS2 protease was added to a final concentration of 25 nM, depending on the enzyme activity level, and the peptide substrate was added to a final concentration of 1.3 μM. The assay was incubated 30 minutes at 30° C. and read in a Perkin Elmer Envision with excitation at 473 nm and emission measurement at 519 nm.

Where [1] appears, read: Table E, SARS-CoV-2 protease inhibition, read-out: IC50.

Where two headings read alike, the source gives them in different places.

`CCCCCCCC1CC/C=C/CC(C(=O)NC)C[C@@H](C(=O)N(C)OC)NC(=O)C(CC(C)C)NC(=O)O1` (single isomer, unassigned) [Compound B36]: the IC50 (commonly the point on the concentration scale where inhibition reaches its midpoint) under setting [1] was greater than 200 µM.
For `CCCCCCCC1CC/C=C/CC(C(=O)NC)C[C@@H](C(=O)N(C)OC)NC(=O)[C@H](CC(C)C)NC(=O)O1` (stereo partly drawn) [Compound B64, (4S,7S,E)-15-heptyl-4-isobutyl-N^7-methoxy-N^7,N^9-dimethyl-2,5-dioxo-1-oxa-3,6-diazacyclopentadec-11-ene-7,9-dicarboxamide], under setting [1], the IC50 was greater than 200 µM.
In the case of `CCOP(=O)(OCC)C(O)[C@H](CCC(=O)N(C)CCc1cccc(Cl)c1)NC(=O)[C@H](CC1CCCCC1)NC(=O)OCc1cccc(Cl)c1` (stereo partly drawn) [Compound A34, 3-Chlorobenzyl ((2S)-1-(((2S)-5-((3-chlorophenethyl)(methyl)amino)-1-(diethoxyphosphoryl)-1-hydroxy-5-oxopentan-2-yl)amino)-3-cyclohexyl-1-oxopropan-2-yl)carbamate], under setting [1], the IC50 is greater than 200 µM.
For the molecule `CCCCCCCC1CCC/C=C/CC(C(=O)N(C)C)CC(C(=O)N(C)OC)NC(=O)[C@H](CC(C)C)NC(=O)O1` (stereo in doubt) [Compound B13, (4S,7S,E)-16-Heptyl-4-isobutyl-N^7-methoxy-N^7,N^9,N^9-trimethyl-2,5-dioxo-1-oxa-3,6-diazacyclohexadec-11-ene-7,9-dicarboxamide], the concentration for half-maximal inhibition (IC50) under setting [1] is greater than 200 µM.
Take `CCCCCCCCC(=O)N[C@@H](CC(C)C)C(=O)N[C@H](CO)CCC(=O)NC` [Compound A110, N—((S)-1-(((S)-1-hydroxy-5-(methylamino)-5-oxopentan-2-yl)amino)-4-methyl-1-oxopentan-2-yl)nonanamide]: the IC50 under setting [1] is greater than 200 µM.
Turning to `CCCCCCCC1CCCCCCCC(C(=O)N(C)C)CC(C(=O)N(C)OC)NC(=O)[C@H](CC(C)C)NC1=O` (stereo in doubt) [Compound B9, (2S,5S)-15-heptyl-2-isobutyl-N^5-methoxy-N^5,N^7,N^7-trimethyl-3,16-dioxo-1,4-diazacyclohexadecane-5,7-dicarboxamide], the half-maximal inhibitory concentration (IC50) under setting [1] was greater than 200 µM.
Regarding `CC(C)C[C@@H]1NC(=O)C(Cc2ccccc2)CCCC/C=C/CC2CC(NC1=O)C(O)N(C)C2=O` (stereo partly drawn) [Compound B21, (4S,E)-7-benzyl-18-hydroxy-4-isobutyl-17-methyl-2,5,17-triazabicyclo[13.3.1]nonadec-12-ene-3,6,16-trione], under setting [1], the IC50 was 89.8 µM.
On the same count and under the same terms, for `CC(C)CC1NC(=O)OC(Cc2ccccc2)CC/C=C/CC(C(=O)N(C)C)CC(C=O)NC1=O` (stereo in doubt) [Compound B38, (4S,7S)-15-Benzyl-7-formyl-4-isobutyl-N,N-dimethyl-2,5-dioxo-1-oxa-3,6-diazacyclopentadec-11-ene-9-carboxamide] the value was 137 µM; for `CCCCCCCC1CC/C=C/CC(C(=O)NC)C[C@@H](C(=O)N(C)OC)NC(=O)C(CC(C)C)NC(=O)O1` (single isomer, unassigned) [Compound B35], greater than 200 µM.
For the molecule `CCNC(=O)NCCN(C)C(=O)CC[C@@H](CO)NC(=O)[C@H](CC1CCCCC1)NC(=O)OCc1cccc(Cl)c1` [Compound A100, 3-Chlorobenzyl ((12S,15S)-16-cyclohexyl-12-(hydroxymethyl)-8-methyl-4,9,14-trioxo-3,5,8,13-tetraazahexadecan-15-yl)carbamate], the IC50 under setting [1] was greater than 200 µM.
On to `CON(C)C(=O)[C@H](CCC(=O)N(C)CC(C)c1ccccc1)NC(=O)[C@H](CC1CCCCC1)NC(=O)OCc1cccc(Cl)c1` (stereo in doubt) [Compound A35, 3-chlorobenzyl ((2S)-3-cyclohexyl-1-(((2S)-1-(methoxy(methyl)amino)-5-(methyl(2-phenylpropyl)amino)-1,5-dioxopentan-2-yl)amino)-1-oxopropan-2-yl)carbamate], for which the IC50 under setting [1] was greater than 200 µM.
As to `CCCCCCCC1CCC/C=C/CC2(CCNC2=O)C[C@@H]([C@H](O)P(=O)(OCC)OCC)NC(=O)[C@H](CC(C)C)NC1=O` (stereo partly drawn) [Compound B22, Diethyl ((1R)-((7S,10S,E)-13-heptyl-10-isobutyl-1,9,12-trioxo-2,8,11-triazaspiro[4.14]nonadec-17-en-7-yl)(hydroxy)methyl)phosphonate], the IC50 is greater than 200 µM.
In the case of `CCCCCCCC1CCCCCCCC(C(=O)N(C)C)CC(C=O)NC(=O)[C@H](CC(C)C)NC1=O` (stereo in doubt) [Compound B17, (2S,5S)-5-formyl-15-heptyl-2-isobutyl-N,N-dimethyl-3,16-dioxo-1,4-diazacyclohexadecane-7-carboxamide], the IC50 under setting [1] is greater than 200 µM.
The same measure, in the same setting: to `CCCCCCCC1CCCCCC(C(=O)N(C)C)CC(C(=O)N(C)OC)NC(=O)[C@H](CC(C)C)NC1=O` (stereo in doubt) [Compound B19, (2S,5S)-13-heptyl-2-isobutyl-N^5-methoxy-N^5,N^7,N^7-trimethyl-3,14-dioxo-1,4-diazacyclotetradecane-5,7-dicarboxamide] belongs greater than 200 µM; to `CCS(=O)(=O)NCCN(C)C(=O)CC[C@H](NC(=O)[C@H](CC1CCCCC1)NC(=O)OCc1cccc(Cl)c1)C(=O)N(C)OC` (stereo in doubt) [Compound A29, 3-Chlorobenzyl ((S)-3-cyclohexyl-1-(((S)-5-((2-(ethylsulfonamido)ethyl)(methyl)amino)-1-(methoxy(methyl)amino)-1,5-dioxopentan-2-yl)amino)-1-oxopropan-2-yl)carbamate], greater than 200 µM; to `CON(C)C(=O)[C@H](CCC(=O)N(C)C)NC(=O)[C@H](CC1CCCCC1)NC(=O)OCc1cccc(Cl)c1` [Compound A3, 3-Chlorobenzyl ((S)-3-cyclohexyl-1-(((S)-5-(dimethylamino)-1-(methoxy (methyl)amino)-1,5-dioxopentan-2-yl)amino)-1-oxopropan-2-yl)carbamate], greater than 200 µM.
`CON(C)C(=O)[C@H](CCC(=O)N(C)CCc1cccc(Cl)c1)NC(=O)[C@H](CC1CCCCC1)NC(=O)OCc1cccc(Cl)c1` [Compound A23]: under setting [1], the 50% inhibitory concentration (IC50) is greater than 200 µM.
Still for that read-out and setting: for `CCCCCCCC1CC/C=C/CC(C(=O)NC)C[C@@H](C(=O)N(C)OC)NC(=O)C(CC(C)C)NC(=O)O1` (single isomer, unassigned) [Compound B32] the value was greater than 200 µM; for `CCOP(=O)(OCC)C(O)[C@@H]1CC2(CC=CCCCC(Cc3ccccc3)C(=O)N[C@@H](CC(C)C)C(=O)N1)CCNC2=O` (stereo partly drawn) [Compound B23, Diethyl (((7S,10S)-13-benzyl-10-isobutyl-1,9,12-trioxo-2,8,11-triazaspiro[4.14]nonadec-17-en-7-yl)(hydroxy)methyl)phosphonate], 46.5 µM; for `CCCC1CCCC/C=C/CC2CC(NC(=O)[C@H](CC(C)C)NC1=O)C(O)(C(=O)NC(C)C)N(C)C2=O` (stereo partly drawn) [Compound B26, (4S,E)-18-hydroxy-4-isobutyl-N-isopropyl-17-methyl-3,6,16-trioxo-7-propyl-2,5,17-triazabicyclo[13.3.1]nonadec-12-ene-18-carboxamide], greater than 200 µM.
Turning to `CCCCCCCCC(=O)N[C@@H](CC(C)C)C(=O)N[C@@H](CCC(=O)NC)CSSC[C@H](CCC(=O)NC)NC(=O)[C@H](CC(C)C)NC(=O)CCCCCCCC` [Compound A111, N,N′-((2S,2'S)-(((2S,2'S)-disulfanediylbis(5-(methylamino)-5-oxopentane-1,2-diyl))bis(azanediyl))bis(4-methyl-1-oxopentane-1,2-diyl))dinonanamide], the IC50 under setting [1] is greater than 200 µM.
Same read-out and setting: for `CC(C)C[C@@H]1NC(=O)OC(Cc2ccccc2)CCCCCC(C(=O)N(C)C)CC(C=O)NC1=O` (stereo in doubt) [Compound B44, (4S,7S)-15-benzyl-7-formyl-4-isobutyl-N,N-dimethyl-2,5-dioxo-1-oxa-3,6-diazacyclopentadecane-9-carboxamide] the value was 185 µM; for `CCNC(=O)CN(C)C(=O)CC[C@H](NC(=O)[C@H](CC1CCCCC1)NC(=O)OCc1cccc(Cl)c1)C(O)P(=O)(OCC)OCC` (stereo partly drawn) [Compound A17, 3-Chlorobenzyl ((2S)-3-cyclohexyl-1-(((2S)-1-(diethoxyphosphoryl)-5-((2-(ethylamino)-2-oxoethyl) (methyl)amino)-1-hydroxy-5-oxopentan-2-yl)amino)-1-oxopropan-2-yl) carbamate], 169 µM.
`CCO[N+]([O-])(OCC)[C@H](O)[C@H]1CC2(CCCCCCC(Cc3ccccc3)C(=O)N[C@@H](CC(C)C)C(=O)N1)CCNC2=O` (stereo partly drawn) [Compound B41]: the half-maximal inhibitory concentration (IC50) under setting [1] was greater than 200 µM.
As to `CCOP(=O)(OCC)C(O)[C@H](CCC(=O)N(C)CCc1ccccc1Cl)NC(=O)[C@H](CC1CCCCC1)NC(=O)OCc1cccc(Cl)c1` (stereo partly drawn) [Compound A47, 3-Chlorobenzyl ((2S)-1-(((2S)-5-((2-chlorophenethyl)(methyl)amino)-1-(diethoxyphosphoryl)-1-hydroxy-5-oxopentan-2-yl)amino)-3-cyclohexyl-1-oxopropan-2-yl)carbamate], the IC50 under setting [1] was greater than 200 µM.
On the same count and under the same terms, for `CCOP(=O)(OCC)C(O)[C@H](CC(C)C(=O)N(C)CCc1ccccc1)NC(=O)[C@H](CC1CCCCC1)NC(=O)OCc1cccc(Cl)c1` (stereo partly drawn) [Compound A104, 3-Chlorobenzyl ((2S)-3-cyclohexyl-1-(((2S)-1-(diethoxyphosphoryl)-1-hydroxy-4-methyl-5-(methyl (phenethyl)amino)-5-oxopentan-2-yl)amino)-1-oxopropan-2-yl)carbamate] the value was greater than 200 µM.
The same measure, in the same setting: to `CCOP(=O)(OCC)C(O)[C@H](CCC(=O)N1CCCC(c2ccccc2)C1)NC(=O)[C@H](CC1CCCCC1)NC(=O)OCc1cccc(Cl)c1` (stereo partly drawn) [Compound A106, 3-Chlorobenzyl ((2S)-3-cyclohexyl-1-(((2S)-1-(diethoxyphosphoryl)-1-hydroxy-5-oxo-5-(3-phenylpiperidin-1-yl)pentan-2-yl)amino)-1-oxopropan-2-yl)carbamate] belongs greater than 200 µM.
